# Experimental data: PubChem BioAssay (NCI)
#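 Grown in 96-well plates, cells were treated for 48 hours with each compound at five concentrations. Insufficient inhibition: endpoint recorded as highest concentration tested. GI50 is the concentration that inhibits growth by half. TGI: concentration producing complete growth inhibition.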
# Tests used:
# Assay in all cases: DTP human tumour cell line panel, 48 h
# EKVX NSCLC = system: EKVX NSCLC
# UO-31 renal = system: UO-31 renal
# HCC-2998 colon = system: HCC-2998 colon
# HOP-62 NSCLC = system: HOP-62 NSCLC
# KM20L2 colon = system: KM20L2 colon
# DLD-1 colon = system: DLD-1 colon
# RPMI-8226 leukemia = system: RPMI-8226 leukemia
# OVCAR-4 ovarian = system: OVCAR-4 ovarian
# HOP-92 NSCLC = system: HOP-92 NSCLC
# NCI/ADR-RES ovarian = system: NCI/ADR-RES ovarian
SMILES,TGI (EKVX NSCLC),TGI (UO-31 renal),TGI (HCC-2998 colon),TGI (HOP-62 NSCLC),TGI (KM20L2 colon),TGI (DLD-1 colon),TGI (RPMI-8226 leukemia),TGI (OVCAR-4 ovarian),TGI (HOP-92 NSCLC),GI50 (EKVX NSCLC),GI50 (UO-31 renal),GI50 (HCC-2998 colon),GI50 (HOP-62 NSCLC),GI50 (KM20L2 colon),GI50 (RPMI-8226 leukemia),GI50 (OVCAR-4 ovarian),GI50 (NCI/ADR-RES ovarian),TGI (NCI/ADR-RES ovarian),GI50 (HOP-92 NSCLC)
COc1ccc2c(c1)C(=O)N1CCOC1C2C(=O)O (centres undefined),> 100 µM,> 100 µM,> 100 µM,> 100 µM,> 100 µM,> 100 µM,> 100 µM,> 100 µM,> 100 µM,–,–,–,–,–,–,–,–,–,–
CC(=O)Oc1cc(C)c2c(c1OC(C)=O)CC1(O2)[C@@H](C)CCC2[C@@]3(C)CC[C@H](OC(C)=O)C(C)(C)C3CC[C@]21C (some centres undefined),11.4 µM,3.93 µM,19.2 µM,8.3 µM,28.3 µM,15.1 µM,> 100 µM,–,8.01 µM,–,–,–,–,–,–,–,–,–,–
N#CC(/C(=N/NC(=O)C(=O)NN)C(=O)Nc1nc([N+](=O)[O-])cs1)c1ccc(Cl)cc1 (centres undefined),> 100 µM,> 100 µM,> 100 µM,> 100 µM,> 100 µM,> 100 µM,> 100 µM,> 100 µM,> 100 µM,–,–,–,–,–,–,–,–,–,–
CC[O-].CC[O-].O=C([CH-]C(=O)c1cccnc1)c1ccccc1.O=C([CH-]C(=O)c1cccnc1)c1ccccc1.[Ti+4],> 100 µM,> 100 µM,> 100 µM,> 100 µM,> 100 µM,–,> 100 µM,> 100 µM,–,> 100 µM,> 100 µM,> 100 µM,48.4 µM,62 µM,55.8 µM,> 100 µM,–,–,–
CN(C)CCN(C)CC1COC(C)(C)O1 (centres undefined),> 100 µM,> 100 µM,> 100 µM,> 100 µM,> 100 µM,> 100 µM,> 100 µM,> 100 µM,> 100 µM,–,–,–,–,–,–,–,–,–,–
Cc1noc2cccc(OCc3ccccc3)c12,> 100 µM,> 100 µM,–,> 100 µM,> 100 µM,> 100 µM,> 100 µM,> 100 µM,> 100 µM,–,–,–,–,–,–,–,–,–,–
CCN(CC)CCCn1cnc2ncccc2c1=O,> 100 µM,> 100 µM,–,> 100 µM,–,> 100 µM,–,> 100 µM,> 100 µM,–,–,–,–,–,–,–,–,–,–
Cc1oc2c(C)c3oc(=O)cc(C)c3cc2c1CNC(=O)[C@@H]1OCCOCCOCCOCCOCCOC1C(=O)O (some centres undefined),> 100 µM,> 100 µM,> 100 µM,> 100 µM,> 100 µM,> 100 µM,> 100 µM,> 100 µM,> 100 µM,–,–,–,–,–,–,–,–,–,–
O=C(O)C1=CCCc2ccc3ccccc3c21,> 100 µM,> 100 µM,–,–,> 100 µM,–,> 100 µM,> 100 µM,> 100 µM,–,–,–,–,–,–,–,–,–,–
Cc1ccccc1C1=[N+]([O-])c2ccccc2C1=O,35.4 µM,36.6 µM,–,57.2 µM,32.9 µM,31.9 µM,> 100 µM,–,62.5 µM,–,–,–,–,–,–,–,–,–,–
N#CC(C(=O)/C(=N/NC(=O)c1ccccc1O)C(C#N)c1ccccc1)c1ccccc1 (centres undefined),> 100 µM,> 100 µM,> 100 µM,> 100 µM,> 100 µM,> 100 µM,> 100 µM,> 100 µM,> 100 µM,–,–,–,–,–,–,–,–,–,–
COC(c1cccc(C(O)(C(F)(F)F)C(F)(F)F)c1)(C(F)(F)F)C(F)(F)F,33.3 µM,34.2 µM,21.7 µM,33.7 µM,31.2 µM,34.6 µM,–,30.4 µM,–,–,–,–,–,–,–,–,–,–,–
COC(=O)C1CCC(Nc2ccc(C)cc2C)=N1 (centres undefined),> 100 µM,> 100 µM,> 100 µM,> 100 µM,> 100 µM,> 100 µM,> 100 µM,> 100 µM,> 100 µM,–,–,–,–,–,–,–,–,–,–
C/C(=N\NC(N)=S)c1cc(C)c(C)cc1C,> 100 µM,> 100 µM,> 100 µM,> 100 µM,> 100 µM,> 100 µM,> 100 µM,> 100 µM,> 100 µM,–,–,–,–,–,–,–,–,–,–
CN(Cc1ccc(Cl)cc1)c1ccc(CO)c(Cl)c1,35.3 µM,14.5 µM,22.1 µM,18.3 µM,–,–,> 52.3 µM,14 µM,16.1 µM,13.5 µM,3.23 µM,9.36 µM,5.75 µM,–,5.51 µM,2.27 µM,8 µM,25.4 µM,3.16 µM
O=C(C=Nc1ccccc1C(=O)[O-])c1cccs1.O=C(C=Nc1ccccc1C(=O)[O-])c1cccs1.[Co+2],–,> 100 µM,> 100 µM,> 100 µM,> 100 µM,> 100 µM,–,–,> 100 µM,–,–,–,–,–,–,–,–,–,–
CCOc1ccccc1NC(=O)c1cc2ccccc2cc1O,11.3 µM,12.5 µM,15.6 µM,16.7 µM,–,–,6.56 µM,19.6 µM,5.08 µM,2.67 µM,2.81 µM,4 µM,3.32 µM,–,2.04 µM,3.69 µM,3.13 µM,14.2 µM,1.72 µM
CC1(Cl)CC2OC3(Br)C=CC(C)(O)C2(CC1Br)C3(C)C (centres undefined),> 100 µM,> 100 µM,> 100 µM,> 100 µM,> 100 µM,> 100 µM,> 100 µM,> 100 µM,> 100 µM,–,–,–,–,–,–,–,–,–,–
N=C(N)c1ccc(OCCOCCOc2ccc(C(=N)N)cc2)cc1,> 100 µM,> 100 µM,> 100 µM,> 100 µM,–,–,> 100 µM,> 100 µM,> 100 µM,> 100 µM,71.5 µM,> 100 µM,> 100 µM,–,68.5 µM,> 100 µM,> 100 µM,> 100 µM,74.6 µM
C/C=C/C1=C(Cl)C(=O)[C@@H](Cl)[C@@]1(O)C(=O)OC,9.27 µM,10.2 µM,8.84 µM,2.42 µM,15.9 µM,9.35 µM,29 µM,5.59 µM,6.22 µM,–,–,–,–,–,–,–,–,6.23 µM,–
COc1ccc(-n2cc(-c3cc(OC)c(OC)c(OC)c3)nc2SCc2ccccc2)cc1,> 100 µM,> 100 µM,> 100 µM,> 100 µM,–,–,> 100 µM,> 100 µM,> 100 µM,11.6 µM,28 µM,45.5 µM,78 µM,–,5.5 µM,13.3 µM,26.8 µM,> 100 µM,28.9 µM
COc1ccc2c(c1)=C(C=C1C=CN(O)C=C1)C(=O)N=2,> 100 µM,> 92.6 µM,47 µM,> 100 µM,–,–,> 67.7 µM,> 100 µM,> 100 µM,43.9 µM,19.8 µM,21.8 µM,40.2 µM,–,24.1 µM,9.96 µM,30.3 µM,> 86.9 µM,25.9 µM
